Key:
[1] = Hydroxyapatite (HA) Binding Assay; conditions: binding to hydroxyapatite; 10^−5 M analyte, 50 mM Tris-HCl pH 7.4, 1% DMSO; tetracycline reference
Excerpt: The supernatant was transferred to another microcentrifuge tube.

[2] = test system: bilaterally ovariectomized (OVX) rats; assay: Uterine mass and uterine mass to body weight ratio in OVX rats; assay type: in vivo, Sprague-Dawley female rats; conditions: for effect on uterine mass to body weight ratio: FIG. 9
Procedure: (§1) Animals. Six month old, bilaterally ovariectomized (OVX) or sham operated Sprague-Dawley female rats (Harlan Laboratories, Indianapolis, Ind.) were maintained at the University of Louisville Research Resources Center at 22° C. with a 12-h light/dark cycle and ad libitum access to tap water and rodent chow (Purina Laboratory Rodent Diet 5001). All animal procedures were approved by the Institutional Animal Care and Use Committee, which is certified by the American Association for Accreditation of Laboratory Animal Care.
(§2) In vivo experiments were conducted in order to investigate the efficacy of compounds of the presently-disclosed subject matter. In all of the experiments, OVX and sham operated rats were randomly divided into groups of 5-7 animals. In all of the studies experimental groups included: i) Sham-operated control (euthanized six weeks post surgery as a pretreatment control), ii) OVX control (euthanized six weeks post surgery as a pretreatment control), iii) Sham control receiving vehicle, iv) OVX control receiving vehicle, v) OVX receiving 17-ethinyl estradiol (equimolar concentration with a selected test compound), vi) OVX receiving alendronate (1.6 mg/kg), and vii) OVX receiving parathyroid hormone 1-34 (PTH) (80 μg/kg). 17-ethinyl estradiol (17 EE) is a free estrogenic agent known to be orally active, and can serve as an example of an anti-catabolic agent. Alendronate (Alen) is a bisphosphonate that is currently used to treat osteoporosis (e.g., Fosamax®, Merck & Co., Inc,), and can serve as an example of an anti-catabolic agent. Parathyroid hormone 1-34 (PTH) is an agent that can serve as an example of an anabolic agent. All compounds and vehicle (1% DMSO in corn oil) were administered three times per week orally by gavage except for PTH which was administered via a subcutaneous injection in a volume of 0.5 ml/kg body mass thrice per week. Compound administration was initiated 6 weeks following surgery and lasted for 6 weeks (18 doses total).
(§3) Compounds of the presently-disclosed subject matter were orally administered to OVX rats at various doses. As indicated above all BTE's were administered three times per week for 6 weeks.
(§4) Following 6 weeks of treatment, blood was obtained from each animal via cardiac puncture following an overnight fast and animals were subsequently euthanized via carbon dioxide asphyxiation. Blood was centrifuged immediately and the obtained serum samples were aliquoted and stored at −70° C. prior to analysis. Uteri were removed and fresh weights were obtained. Uterine masses were normalized to body mass at the end of the experiment. The left and right femora and left and right tibiae were subsequently collected from each animal, cleaned of soft tissue, and stored in saline at 4° C. prior to analysis.
Uterine Mass and Body Weight. […] Uterine mass can be used to as a measure of estrogenic effect occurring in a tissue outside the bone in response to treatment with a test compound or composition. Generally, a lower uterine mass can be associated with a decreased risk of adverse side effects associated with the test compound or composition. A ratio of uterine mass to body weight can be used to correct for any increase in uterine size attributable to the relative size of the individual animal. Body weight and/or uterine mass also serve as an indirect measures of toxicity of a test compound.

[3] = test system: bilaterally ovariectomized (OVX) rats; assay: RatLaps ELISA for C-telopeptide fragments of collagen type I (CTX-I) in serum; assay type: in vivo, Sprague-Dawley female rats; conditions: Formulas 66 and 67 at 250 μg/kg doses, 17-ethinyl estradiol equimolar, FIG. 16
Procedure: as §1
as §2, with “All compounds and vehicle (1% DMSO in corn oil) were administered three times per week orally by gavage except for PTH which was administered via a subcutaneous injection in a volume of 0.5 ml/kg body mass thrice per week. Compound administration was initiated 6 weeks following surgery and lasted for 6 weeks (18 doses total).” left out
RatLaps™ ELISA for C-telopeptide Fragments of Collagen Type I (CTX-I). […] Bone resorption (CTX-I) was quantitatively assessed in rat serum using the commercially available RatLaps™ ELISA KIT from Nordic Bioscience Diagnostics A/S (Herlev, Denmark) as recommended by the manufacturer.

[4] = Body weight of OVX rats during treatment; assay type: in vivo, Sprague-Dawley female rats
Procedure: as §1, §2, §3, §4
Uterine Mass and Body Weight. […]

[5] = test system: bilaterally ovariectomized (OVX) rats; assay: Femoral density via Archimedes' Principle (whole bone); assay type: in vivo, Sprague-Dawley female rats; conditions: right femora
Procedure: as §1, §2
(§5) Following 6 weeks of treatment, blood was obtained from each animal via cardiac puncture following an overnight fast and animals were subsequently euthanized via carbon dioxide asphyxiation. Blood was centrifuged immediately and the obtained serum samples were aliquoted and stored at −70° C. prior to analysis. Uteri were removed and fresh weights were obtained. […]
Femoral Density via Archimedes' Principle. […] Densities were determined using Archimedes' Principle according to the following formula: density=[mass of hydrated femur/(mass of hydrated femur−mass of hydrated femur submerged in water)]×density of distilled water at a given temperature (See Keenan, et al. Comparison of bone density measurement techniques: DXA and Archimedes' principle. J Bone Miner Res 1997; 12:1903-7.). […]

[6] = test system: bilaterally ovariectomized (OVX) rats; assay: Regional femoral density via Archimedes' Principle; assay type: in vivo, Sprague-Dawley female rats
Procedure: as §1, §2
as §5, with “obtained. Uterine masses were normalized to body mass at the end of the experiment.” for “obtained.”
Regional Femoral Density via Archimedes' Principle. […] Briefly, each femur was measured with a Cen-Tech Digital Caliper and a cut was made from each end at 20% of the length of the femur plus half the width of the blade. Subsequently, the bone marrow was washed out of the femoral diaphysis and the Archimedes density for each of the three femoral regions was determined as described above.

[7] = test system: bilaterally ovariectomized (OVX) rats; assay: Lipid metabolism (total cholesterol, HDL, LDL) in rat serum; assay type: in vivo, Sprague-Dawley female rats; conditions: present-tense statement, no data
Procedure: as §1
(§6) In vivo experiments were conducted in order to investigate the efficacy of compounds of the presently-disclosed subject matter. In all of the experiments, OVX and sham operated rats were randomly divided into groups of 5-7 animals. […]
Quantitative Determination of Lipid Metabolism (Total Cholesterol HDL, and LDL) in Rat Serum. Total cholesterol, high-density lipoprotein (HDL), and low-density lipoprotein (LDL) were quantitatively determined in the serum of rats in order to evaluate the extraosseous effects of estrogen treatment on lipid metabolism. […]

[8] = test system: bilaterally ovariectomized (OVX) rats; assay: Volume fraction, ex vivo micro-computed tomography of tibia; assay type: in vivo, Sprague-Dawley female rats; conditions: for bone density by trabecular volume fraction: ex vivo micro-CT, compared to OVX animals, FIG. 14; for bone density in three-dimensional micro-CT images: reconstructed images, FIG. 15
Procedure: as §1, §2, §4
Volume Fraction—Ex vivo micro-computed tomography (μCT). Volume fraction is a representative value for the amount of bone that occupies a given volume or space. […]

[9] = test system: bilaterally ovariectomized (OVX) rats; assay: Bone mechanical competence indentation test; assay type: in vivo, Sprague-Dawley female rats; conditions: proximal tibial metaphysis, present-tense statement, no data
Procedure: as §1
In vivo experiments were conducted in order to investigate the efficacy of compounds of the presently-disclosed subject matter. In all of the experiments, OVX and sham operated rats were randomly divided into groups of 5-7 animals. In all of the studies experimental groups included: i) Sham-operated control (euthanized six weeks post surgery as a pretreatment control), ii) OVX control (euthanized six weeks post surgery as a pretreatment control), iii) Sham control receiving vehicle, iv) OVX control receiving vehicle, v) OVX receiving 17-ethinyl estradiol (equimolar concentration with a selected test compound), vi) OVX receiving alendronate (1.6 mg/kg), and vii) OVX receiving parathyroid hormone 1-34 (PTH) (80 μg/kg). 17-ethinyl estradiol (17 EE) is a free estrogenic agent known to be orally active, and can serve as an example of an anti-catabolic agent. […]

[10] = test system: bilaterally ovariectomized (OVX) rats; assay: Rat Osteocalcin EIA (serum); assay type: in vivo, Sprague-Dawley female rats; conditions: versus OVX controls; FIG. 17
Procedure: as §1, §6
Rat Osteocalcin EIA. […] Rat serum osteocalcin levels were measured using the Rat Osteocalcin EIA Kit from Biomedical Technologies, Incorporated (Stoughton, Mass.) as recommended by the manufacturer.

ICR Swiss mice = assay: Periosteal bone formation in mouse calvarial injection model; assay type: in vivo; conditions: subcutaneous over calvariae; histomorphometry; present-tense statement, no data
Procedure: Stimulation of Periosteal Bone Formation in a Mouse Calvarial Injection Model. The anabolic (bone formation) potential of compounds of the presently-disclosed subject matter are evaluated in the mouse calvarial injection model. Briefly, 4-week-old ICR Swiss mice are injected subcutaneously over the surface of the calvariae with compounds of the presently-disclosed subject matter at concentrations of 0, 1, 3, and 10 mg/kg/day for 5 days (twice a day). Microtubule inhibitor TN-16 (5 mg/kg/day for 2 days, twice a day) are used as a positive control. Mice are sacrificed two weeks after the injections are completed. Dissected calvarial samples are fixed in 10% phosphate-buffered formalin for 2 days, decalcified in 10% EDTA for 2 weeks and then embedded in paraffin. Histological sections are cut and stained with H&E and orange G. New woven bone formation (new bone area) is quantified by histomorphometry using the OsteoMeasure system (OsteoMetrics Inc., Atlanta, Ga.).

[11] = OVX rats, oral, test compounds 25 or 250 μg/kg, 17-ethinyl estradiol equimolar, 3 times per week for 6 weeks, FIG. 8
[12] = OVX rats, oral, test compounds 25 or 250 μg/kg, 17-ethinyl estradiol equimolar, 3 times per week for 6 weeks
[13] = oral 3 times per week for 6 weeks, FIG. 1
[14] = proximal and distal left femur, FIGS. 5 and 6
[15] = oral 25 or 250 μg/kg, 3 times per week for 6 weeks, FIG. 7
[16] = proximal and distal left femur and left femoral diaphysis, oral 25 or 250 μg/kg, FIGS. 11, 12, 13

Row | Structure (SMILES) | Binding Index [1] | effect on uterine mass [2, 11] | effect on uterine mass to body weight ratio [2, 12] | production of CTX-I (bone resorption) [3] | effect on body weight [4, 13] | effect on uterine mass ([2]; rat, in vivo, po) | whole bone density ([5]; FIG. 4) | regional bone density [6, 14] | effect on body weight [4, 15] | effect on lipid metabolism [7] | whole bone density ([5]; oral 25 or 250 μg/kg, FIG. 10) | regional bone density [6, 16] | bone density by trabecular volume fraction [8] | bone density in three-dimensional micro-CT images [8] | bone strength [9] | serum osteocalcin levels [10] | new bone area (ICR Swiss mice)
1 | C[C@]12CC[C@@H]3c4ccc(O)cc4CC[C@H]3[C@@H]1CC[C@@H]2O [17,β-estradiol] | −8 | – | – | – | – | – | – | – | – | – | – | – | – | – | – | – | –
2 | C#C[C@]1(O)CC[C@H]2[C@@H]3CCc4cc(O)ccc4[C@H]3CC[C@@]21C [17-ethinyl estradiol, reference compound] | – | induced an increase | induced an increase | decreased the production of CTX-1 to below sham levels | – | – | – | – | – | – | – | – | – | – | – | – | –
3 | COc1ccc(N)c(O)c1C(N)=O [BTA-2] | – | – | – | – | no effect | no effect | not significantly effected | not significantly effected | – | – | – | – | – | – | – | – | –
4 | NC(=O)c1c(OCc2ccccc2)ccc(N)c1O [BTA-3] | – | – | – | – | no effect | no effect | not significantly effected | not significantly effected | – | – | – | – | – | – | – | – | –
5 | CCCCOP(=O)(OCCCC)Oc1ccc2c(c1)CCC1C2CC[C@]2(C)C1CC[C@H]2OCCC(=O)Nc1ccc(OC)c(C(N)=O)c1O (stereo partly drawn) [Formula 66] | – | limited or no effect | limited or no effect | do not inhibit | – | – | – | – | limited or no effect | limited or no effect | in the same ranges as those animals receiving 17-ethinyl estradiol (17 EE), Alendronate (Alen), or Parathyroid hormone 1-34 (PTH) | increased | increased | affected an increase | increase | lower than in OVX controls | increase
6 | COc1ccc(NC(=O)CCO[C@@H]2CCC3C4CCc5cc(OP(=O)(OCc6ccccc6)OCc6ccccc6)ccc5C4CC[C@]32C)c(O)c1C(N)=O (stereo partly drawn) [Formula 67] | – | limited or no effect | limited or no effect | do not inhibit | – | – | – | – | limited or no effect | limited or no effect | in the same ranges as those animals receiving 17-ethinyl estradiol (17 EE), Alendronate (Alen), or Parathyroid hormone 1-34 (PTH) | increased | increased | affected an increase | increase | lower than in OVX controls | increase

Reference: US20080221070A1, “METHODS AND COMPOUNDS FOR THE TARGETED DELIVERY OF AGENTS TO BONE FOR INTERACTION THEREWITH” (priority 2007, published 2008)
